Laboratory results published in patent US5491135A (priority 1993, dated 1996).
Where “and” joins values, the source holds several entries; their conditions need not be identical. Equal entries are not always repeated. Entries after “also recorded” stand apart in the source; their conditions may differ. Where two headings read alike, the source gives them in different places.

What was measured:
HCMV strain AD 169 = assay: Rabbit HCMV ascending dose efficacy and time course recovery (Example 7); details: for Average HCMV titer / HCMV Recovered, OD / HCMV Recovered, OS / HCMV Titer, OD / HCMV Titer, OS / HCMV recovery frequency / Optic neuritis score (ONH) / Vitreo-retinal score: PALA 50 or DHPG 10 mg/kg/d; for Vitreo-retinal score: sum of both eyes
clinical HCMV isolate = format: cell-based

Question: What does the source list for `Nc1nc(O)c2ncn(COC(CO)CO)c2n1` [DHPG, reference compound]?
Answer: clinical disease / efficacy (HCMV strain AD 169; PALA 50 or DHPG 10 mg/kg/day i.v.): did reduce the development of HCMV-induced optic nerve disease severity; also recorded: vitreitis was only marginally affected; Average HCMV titer (HCMV strain AD 169; day 3): 10^3 pfu; HCMV Recovered, OD (HCMV strain AD 169; day 3): +; HCMV Recovered, OS (HCMV strain AD 169; day 3): - and +; HCMV Titer, OD (HCMV strain AD 169; day 3): 10^4 pfu; HCMV Titer, OS (HCMV strain AD 169; day 3): 10^3 pfu; HCMV recovery frequency (HCMV strain AD 169; day 3): 3/4; Optic neuritis score (ONH) (HCMV strain AD 169; day 3): 5.0 and 4.0; Vitreo-retinal score (HCMV strain AD 169; day 3): 4.75 and 5.0; HCMV Recovered, OD (HCMV strain AD 169; day 4): +; HCMV Recovered, OS (HCMV strain AD 169; day 4): -; HCMV Titer, OD (HCMV strain AD 169; day 4): 10^2 pfu and 10^3 pfu; HCMV recovery frequency (HCMV strain AD 169; day 4): 2/4; Optic neuritis score (ONH) (HCMV strain AD 169; day 4): 6.0 and 5.0; Vitreo-retinal score (HCMV strain AD 169; day 4): 3.75 and 5.75; Average HCMV titer (HCMV strain AD 169; day 5): 10^2 pfu; HCMV Recovered, OD (HCMV strain AD 169; day 5): - and +; HCMV Recovered, OS (HCMV strain AD 169; day 5): + and -; HCMV Titer, OD (HCMV strain AD 169; day 5): 10^2 pfu; HCMV Titer, OS (HCMV strain AD 169; day 5): 10^2 pfu; HCMV recovery frequency (HCMV strain AD 169; day 5): 2/4; Optic neuritis score (ONH) (HCMV strain AD 169; day 5): 4.0 and 5.0; Vitreo-retinal score (HCMV strain AD 169; day 5): 4.0 and 5.0; Average HCMV titer (HCMV strain AD 169; day 6): 10^1 pfu; HCMV Recovered, OD (HCMV strain AD 169; day 6): -; HCMV Recovered, OS (HCMV strain AD 169; day 6): - and +; HCMV Titer, OD (HCMV strain AD 169; day 6): 10^2 pfu; HCMV recovery frequency (HCMV strain AD 169; day 6): 1/4; Optic neuritis score (ONH) (HCMV strain AD 169; day 6): 2.0; Optic neuritis score (ONH) (HCMV strain AD 169; day 7): 2.0; Vitreo-retinal score (HCMV strain AD 169; day 7): 3.25 and 5.5; HCMV Recovered, OD (HCMV strain AD 169; day 12): -; HCMV Recovered, OS (HCMV strain AD 169; day 12): -; reduction of HCMV titer (clinical HCMV isolate): effective in reducing the titer; Cell associated HCMV titer (clinical HCMV isolate; day 0 PI): 10^2 PFU/ml; Cell free (supernatant) HCMV titer (clinical HCMV isolate; day 0 PI): 10^5 PFU/ml; Cell associated HCMV titer (clinical HCMV isolate; day 1 PI): 10^3 PFU/ml; Cell free (supernatant) HCMV titer (clinical HCMV isolate; day 1 PI): 10^1 PFU/ml; Cell associated HCMV titer (clinical HCMV isolate; day 2 PI): 10^2 PFU/ml; Cell free (supernatant) HCMV titer (clinical HCMV isolate; day 2 PI): 10^1 PFU/ml; Cell associated HCMV titer (clinical HCMV isolate; day 3 PI): 10^1 PFU/ml; Cell free (supernatant) HCMV titer (clinical HCMV isolate; day 3 PI): 10^1 PFU/ml; Cell associated HCMV titer (clinical HCMV isolate; day 4 PI): 10^1 PFU/ml; Cell free (supernatant) HCMV titer (clinical HCMV isolate; day 4 PI): 10^1 PFU/ml; Cell associated HCMV titer (clinical HCMV isolate; day 5 PI): 0 PFU/ml; Cell free (supernatant) HCMV titer (clinical HCMV isolate; day 5 PI): 0 PFU/ml; Cell associated HCMV titer (clinical HCMV isolate; day 6 PI): 10^1 PFU/ml; Cell associated HCMV titer (clinical HCMV isolate; day 7 PI): 10^1 PFU/ml
